IC50 data for eleven molecules are collected here from patent publication US9573961B2, “Inhibitors of the renal outer medullary potassium channel” (Merck Sharp & Dohme Corp., priority 2012, dated 2017).

One experiment addresses Kir1.1 (ROMK1) (Homo sapiens (Human), UniProt P48048). Nature of the experiment: Electrophysiology Assay (whole cell voltage clamp, IonWorks Quattro). Type of experiment: cell-based. Particulars: block during voltage step to 0 mV. Put shortly: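 CHO cells stably expressing the channel, induced overnight with 1 mM sodium butyrate, were recorded in amphotericin-perforated patch mode. The test pulse was a 100 ms step to 0 mV from −70 mV, then a −70 to +70 mV ramp, applied before and after a 6 min compound incubation. Current amplitudes were compared.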
For orientation: In patch-clamp work, channel activity is measured electrically.

In a further experiment the target is hROMK (hKir1.1) (Homo sapiens (Human), UniProt P48048). Nature of the experiment: Thallium Flux Assay (ROMK channel functional thallium flux, FLIPR-Tetra). Type of experiment: cell-based. Particulars: read-out: Thallium Flux IC50. Put shortly:
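HEK293 cells stably expressing hROMK loaded with FluxOR dye for 90 min, then incubated with compound for 30 min at 23-25 °C. Normalized to a 3 μM standard ROMK inhibitor as % fluorescence change.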

The mark [1] stands for this setting: Chinese hamster ovary cells stably expressing Kir1.1, read-out: Electrophysiology IC50.
Setting [2] is: HEK293 cells stably expressing hROMK (hKir1.1).
Where [3] appears, read: Electrophysiology IC50, Chinese hamster ovary cells stably expressing Kir1.1.

As a reminder, the IC50 is the concentration needed to halve the response being measured.

Like-named read-outs stand apart in the source and are kept apart here.

Sequence of hROMK (hKir1.1) (P48048 whole entry): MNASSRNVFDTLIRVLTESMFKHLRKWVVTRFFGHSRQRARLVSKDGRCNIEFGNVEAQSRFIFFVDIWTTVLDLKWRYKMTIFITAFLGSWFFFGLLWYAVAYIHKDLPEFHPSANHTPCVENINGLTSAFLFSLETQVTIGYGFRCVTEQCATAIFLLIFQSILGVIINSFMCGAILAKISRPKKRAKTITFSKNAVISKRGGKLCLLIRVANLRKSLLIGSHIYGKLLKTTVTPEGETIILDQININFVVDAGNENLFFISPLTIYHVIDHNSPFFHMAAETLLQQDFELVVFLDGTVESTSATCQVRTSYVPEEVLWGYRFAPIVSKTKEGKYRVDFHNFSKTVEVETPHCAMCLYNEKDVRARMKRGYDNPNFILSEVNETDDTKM
Sequence of Kir1.1 (ROMK1) (P48048 whole entry): as above

For `Cc1c([C@H]2CN3CCN(C(=O)C4CCCc5cc(-n6cnnn6)ccc54)C[C@H]3CO2)ccc2c1COC2=O` (single isomer, unassigned) [Example 88], the IC50 was found to be 460 nM at Kir1.1 (ROMK1) (setting [1]) and 380 nM at hROMK (hKir1.1) (setting [2]).

For `COc1c([C@@H]2CN3CCN(C(=O)Cc4ccc(-n5cnnn5)cc4)C[C@H]3CO2)ccc(F)c1C#N` [Example 32, 6-fluoro-2-methoxy-3-[(3R,9aS)-8-{[4-(1H-tetrazol-1-yl)phenyl]acetyl}octahydropyrazino[2,1-c][1,4]oxazin-3-yl]benzonitrile], the IC50 against Kir1.1 (ROMK1) (setting [3]) was 140 nM; at hROMK (hKir1.1), 100 nM.

Consider `COc1cc(CC(=O)N2CCN3C[C@H](c4ccc5c(c4)CCOC5=O)OC[C@H]3C2)c(F)cc1C#N` [Example 31, 5-fluoro-2-methoxy-4-{2-oxo-2-[(3S,9aR)-3-(1-oxo-3,4-dihydro-1H-isochromen-6-yl)hexahydropyrazino[2,1-c][1,4]oxazin-8(1H)-yl]ethyl}benzonitrile], for which the IC50 on Kir1.1 (ROMK1) (setting [3]) turned out to be 120 nM; at hROMK (hKir1.1) (setting [2]), 570 nM.

Consider `Cc1c([C@H]2CN3CCN(C(=O)Cc4ccc(-n5cnnn5)cc4)C[C@H]3CN2)ccc(F)c1C#N` [Example 101], for which the IC50 came to 50 nM against Kir1.1 (ROMK1) (setting [3]) and 60 nM on hROMK (hKir1.1) (setting [2]).

`Cc1c([C@@H]2CN3CCN(C(=O)C4CCc5cc(-n6cnnn6)ccc54)C[C@H]3CO2)ccc(F)c1C#N` (mixture of isomers) [Example 2B, 3-((3R,9aS)-8-(5-(1H-tetrazol-1-yl)-2,3-dihydro-1H-indene-1-carbonyl)octahydropyrazino[2,1-c][1,4]oxazin-3-yl)-6-fluoro-2-methylbenzonitrile]: the results for the IC50 at Kir1.1 (ROMK1) (setting [1]) and on hROMK (hKir1.1) (setting [2]) were 150 nM and 290 nM, respectively.

In the case of `C[C@@H]1Cc2cc([C@@H]3CN4CCN(C(=O)Cc5ccc(-n6cnnn6)cc5)C[C@H]4CN3)ccc2C(=O)O1` [Example 104], the IC50 against Kir1.1 (ROMK1) (setting [3]) was 380 nM; on hROMK (hKir1.1) (setting [2]) it was 290 nM.

As to `Cc1c([C@@H]2CN3CCN(C(=O)Cc4c(F)cc(-n5cnnn5)cc4F)C[C@@H]3CO2)ccc2c1COC2=O` [Example 79, 5-[(3R,9aR)-8-{[2,6-difluoro-4-(1H-tetrazol-1-yl)phenyl]acetyl}octahydropyrazino[2,1-c][1,4]oxazin-3-yl]-4-methyl-2-benzofuran-1(3H)-one], the IC50 was found to be 190 nM at Kir1.1 (ROMK1) (setting [1]) and 260 nM at hROMK (hKir1.1) (setting [2]).

For `Cc1c([C@H]2CN3CCN(C(=O)Cc4cccc(-n5cnnn5)c4)C[C@H]3CO2)ccc(F)c1C#N` [Example 46, 6-fluoro-2-methyl-3-[(3S,9aS)-8-{[3-(1H-tetrazol-1-yl)phenyl]acetyl}octahydropyrazino[2,1-c][1,4]oxazin-3-yl]benzonitrile], the values for the IC50 on Kir1.1 (ROMK1) (setting [1]) and at hROMK (hKir1.1) (setting [2]) were 140 nM and 240 nM, respectively.

As to `Cc1c([C@@H]2CN3CCN(C(=O)Cc4ccc(-n5cnnn5)cc4C#N)C[C@H]3CO2)ccc(F)c1C#N` [Example 67, 3-[(3R,9aS)-8-{[2-cyano-4-(1H-tetrazol-1-yl)phenyl]acetyl}octahydropyrazino[2,1-c][1,4]oxazin-3-yl]-6-fluoro-2-methylbenzonitrile], the IC50 against Kir1.1 (ROMK1) (setting [3]) came to 170 nM; at hROMK (hKir1.1) (setting [2]), 130 nM.

With `COc1c([C@H]2CN3CCN(C(=O)Cc4ccc(-n5cnnn5)cc4)C[C@H]3CO2)ccc(F)c1C#N` [Example 33, 6-fluoro-2-methoxy-3-[(3S,9aS)-8-{[4-(1H-tetrazol-1-yl)phenyl]acetyl}octahydropyrazino[2,1-c][1,4]oxazin-3-yl]benzonitrile], the IC50 against Kir1.1 (ROMK1) (setting [3]) came out at 130 nM; at hROMK (hKir1.1) (setting [2]), 110 nM.

Consider `Cc1c([C@H]2CN3CCN(C(=O)Cc4ccc(-n5cnnn5)cc4)C[C@H]3CO2)ccc(Cl)c1C#N` [Example 35, 6-chloro-2-methyl-3-[(3S,9aS)-8-{[4-(1H-tetrazol-1-yl)phenyl]acetyl}octahydropyrazino[2,1-c][1,4]oxazin-3-yl]benzonitrile], for which the figures for the IC50 on Kir1.1 (ROMK1) (setting [3]) and at hROMK (hKir1.1) (setting [2]) were 260 nM and 760 nM, respectively.
